Experimental data as given in patent US11235023B2, “Beta-hairpin peptidomimetic with elastase inhibitory activity and aerosol dosage forms thereof” (POLYPHOR AG, priority 2016, dated 2022).
Non-standard residues stand in square brackets, D forms with d. Residues, ends and D or L forms follow the SMILES beside them. Gly(octyl) = CCCCCCCC[C@H](N)C(=O)O

Assays:
[1] = tested on: neutrophil elastase; test: LPS/fMLP model of neutrophil activation in the rat, neutrophil elastase activity in BAL supernatant; assay type: in vivo; details: for NE activity: BAL 6 h post LPS, mean ± s.e.m., vehicle 0.25 ± 0.02
[2] = Phase-Ib single ascending dose study in patients with cystic fibrosis, safety and tolerability; assay type: in vivo, human
Text: In this randomised, double-blind, placebo-controlled, parallel-group (per dose level) dose-escalation study, the safety and tolerability of single ascending doses (SAD) of acetate salt of cyclo(-OctG-Glu-Thr-Ala-Ser-Ile-Pro-Pro-Gln-Lys-Tyr-^DPro-Pro-) administered by inhalation in patients with cystic fibrosis (CF) was investigated. Additionally, the pharmacokinetics of the drug following a single ascending dose in plasma and sputum as well as its pharmacodynamic effect on neutrophil elastase activity in sputum were evaluated.
In this study, conducted by Inamed GmbH, Gauting, Germany, 24 subjects with cystic fibrosis, who fulfilled all the inclusion criteria and in whom no exclusion criterion was present, were included and received randomised treatment. They were grouped into 3 dose groups of 8 subjects each. 6 subjects received the formulation described in Example 1 and dilutions thereof and 2 subjects received placebo (0.5% [w/w] aqueous sodium chloride solution adjusted to pH 5.5 with 1 M HCl pharmaceutical grade). The oral inhalation of the above formulation as well as the placebo occurred via the Pari eFlow® XL 30 nebulizer device (Pari Pharma GmbH, Starnberg, Germany). The dose levels and corresponding concentrations of cyclo(-OctG-Glu-Thr-Ala-Ser-Ile-Pro-Pro-Gln-Lys-Tyr-^DPro-Pro-) (active compound) are summarized in Table 14.
The volume of placebo nebulizer solution corresponded to that of the active compound at a particular dose level. The duration of inhalation was estimated to be between 7 and 20 min. Adverse events were tabulated and summarized according to the current version of Medical Dictionary for Regulatory Activities.

## CCCCCCCC[C@@H]1NC(=O)[C@@H]2CCCN2C(=O)[C@H]2CCCN2C(=O)[C@H](Cc2ccc(O)cc2)NC(=O)[C@H](CCCCN)NC(=O)[C@H](CCC(N)=O)NC(=O)[C@@H]2CCCN2C(=O)[C@@H]2CCCN2C(=O)[C@H]([C@@H](C)CC)NC(=O)[C@H](CO)NC(=O)[C@H](C)NC(=O)[C@H]([C@@H](C)O)NC(=O)[C@H](CCC(=O)O)NC1=O [active compound, cyclo(-OctG-Glu-Thr-Ala-Ser-Ile-Pro-Pro-Gln-Lys-Tyr-^DPro-Pro-)] (cyclo([Gly(octyl)]ETASIPPQKY[dP]P))
[1]; 0.3, 3 and 30 mg/kg by inhalation 3 h post LPS, 1 h prior to fMLP
  Effect on neutrophil elastase activity in BAL fluid: significantly inhibited
[1]; between dosing period and study termination
  Test item related clinical signs: No test item related clinical signs were observed
[1]; inhalation 0.3 mg/kg
  NE activity: 0.10 ± 0.01 mU/mL eq.
[1]; inhalation 3 mg/kg
  NE activity: 0.11 ± 0.01 mU/mL eq.
[1]; inhalation 30 mg/kg
  NE activity: 0.07 ± 0.01 mU/mL eq.
[1]; intratracheal doses of 0.03 to 3 mg/kg
  Efficacy in previous intratracheal study: efficacious
[2]; CF patients, single inhaled doses 80, 160, 320 mg
  Deaths, serious and other significant adverse events: No death, no serious adverse events (AE) and no other significant AE
[2]; human, in vivo
  Causal relationship of TEAEs: not related to the active compound
  Inhalation-related local AEs: no inhalation-related local AEs
  Total number of AEs (all TEAEs): 6
